For 1 compound, IC50 results are on record in patent US9605027B2, “Polypeptides that bound to IL-23 receptor and inhibit binding of IL-23 and cell signaling thereof” (Medical Diagnostic Laboratories, LLC, priority 2011, dated 2017).

The test relates to IL-23 induced IL-17F production in human Th17 cells. Kind of test: IL-17F production induced by IL-23 in in vitro differentiated human Th17 cells. It counts as cell-based. As to conditions: IL-23 1 ng/ml, peptide 0-10 μM, ELISA; read-out: IC50, inhibition of IL-17F production. The protocol:
To that end, we designed and performed an in vitro assay using human differentiated Th17 cells. CD4+ naive T cells were negatively enriched using a human CD4+ naive T cells enrichment kit (StemCell Technologies, Catalog #19155). The purity of enriched CD4+ naive T cells was determined by FACS analysis. 1×10^6 cells/ml of CD4+ naive T cells were differentiated into Th17 cells under Th17 culture condition (CD3/28 beads, 10 ng/ml of IL-1β, 10 ng/ml of IL-6, 10 ng/ml of IL-23 and 1 ng/ml of TGF-β) for 5 days. All cytokines were purchased from Humanzyme. The CD3/28 beads were used according to the manufacturer's instructions (Miltenyi Biotec). Differentiation of Th17 cells was confirmed by the production of IL-17F using ELISA.
Experiments were performed where cyclic peptide no. 2HT AA (SEQ ID NO: 177) was added to the differentiated Th17 cells 30 minutes before the addition of IL-23 cytokine Th17 cells were stimulated for 2 days. Ionomycin (1 μg/ml)/PMA (50 ng/ml) (BD biosciences, San Jose, Calif.) were added to the stimulated cells 4 hours before the collection of media to measure the IL-17F production by ELISA (Catalog #88-7478, eBioscience, San Diego, Calif.). […]
CD4+ naive T cells were negatively enriched using human CD4+ naive T cells enrichment kit (StemCell Technologies, Catalog #19155). The purity of naive T cells was measured by FACS analysis. […]
In general terms: ELISA stands for enzyme-linked immunosorbent assay.

Peptide text beside a SMILES is read from it.

Consider `CSCC[C@@H]1NC(=O)[C@H](CCCCN)NC(=O)[C@H](C)NC(=O)[C@H](C)NC(=O)[C@H](CS)NC(=O)[C@H](CC(N)=O)NC(=O)[C@H](CCCCN)NC(=O)[C@H](CC(C)C)NC(=O)[C@H](Cc2c[nH]c3ccccc23)NC(=O)[C@H](Cc2ccc(O)cc2)NC(=O)[C@H](CC(=O)O)NC(=O)[C@H](C(C)C)NC(=O)[C@H](Cc2c[nH]c3ccccc23)NC(=O)[C@H]([C@@H](C)O)NC1=O` [2HT AA] (cyclo(AAKMTWVDYWLKNC)), for which the IC50 was found to be 339 nM.

What is called IC50 is the concentration that gives 50% inhibition.
